In patent US12338220B2, “Antiviral pyrazolopiridinone compounds” (Novartis AG, priority 2019, dated 2025):
Like-named read-outs stand apart in the source and are kept apart here.

What was measured:
CMV-polymerase = CMV-polymerase (Human cytomegalovirus (strain AD169) (HHV-5) (Human herpesvirus 5), UniProt P08546); test: biochemical
CMV = test: microbe, parasite or virus in culture; format: cell-based; conditions: Human betaherpesvirus 5, 72 h, read-out: CMV-Luc Cellular EC50, NN-NHDF cells, MOI 1, 72 hrs
HSV-polymerase = HSV-polymerase (Human herpesvirus 1 (strain 17) (HHV-1) (Human herpes simplex virus 1), UniProt P04293); test: biochemical
[1] = CMV-polymerase Biochemical IC50
[2] = read-out: CMV-polymerase Biochemical IC50

SMILES	IC50 (CMV-polymerase; [1]) [nM]	EC50 (CMV) [nM]	IC50 (HSV-polymerase) [nM]	IC50 (CMV-polymerase; [2]) [nM]	IC50 (HSV-polymerase; read-out: HSV-polymerase Biochemical IC50) [nM]
Cn1nc(C(=O)NCc2ccc(C#N)cc2)c2c1C(=O)N(CC1(S(=O)(=O)C(C)(C)COC(F)CO)CC1)CC2 (single isomer, unassigned) [Example 80, (R)- or (S)-N-(4-Cyanobenzyl)-6-((1-((1-(1-fluoro-2-hydroxyethoxy)-2-methylpropan-2-yl)sulfonyl)cyclopropyl)methyl)-1-methyl-7-oxo-4,5,6,7-tetrahydro-1H-pyrazolo[3,4-c]pyridine-3-carboxamide]	6	36	67	–	–
CC(O)COCC(C)(C)S(=O)(=O)C1(CN2CCc3c(C(=O)NCc4ccc(C#N)cc4)nn(C)c3C2=O)CC1 (single isomer, unassigned) [Example 90, (R)- or (S)-N-(4-Cyanobenzyl)-6-((1-((1-(2-hydroxypropoxy)-2-methylpropan-2-yl)sulfonyl)cyclopropyl)methyl)-1-methyl-7-oxo-4,5,6,7-tetrahydro-1H-pyrazolo[3,4-c]pyridine-3-carboxamide]	7	58	97	–	–
CC(O)CC(C)(C)S(=O)(=O)C1(CN2CCc3c(C(=O)NCc4ccc(C#N)cc4)nn(C)c3C2=O)CC1 (single isomer, unassigned) [Example 115, (R)- or (S)-N-(4-Cyanobenzyl)-6-((1-((4-hydroxy-2-methylpentan-2-yl)sulfonyl)cyclopropyl)methyl)-1-methyl-7-oxo-4,5,6,7-tetrahydro-1H-pyrazolo[3,4-c]pyridine-3-carboxamide]	3	59	71	–	–
COCC(C)(CO)S(=O)(=O)C1(CN2CCc3c(C(=O)NCc4ccc(C#N)cc4)nn(C)c3C2=O)CC1 (single isomer, unassigned) [Example 181, (R)- or (S)-N-(4-Cyanobenzyl)-6-((1-((1-hydroxy-3-methoxy-2-methylpropan-2-yl)sulfonyl)cyclopropyl)methyl)-1-methyl-7-oxo-4,5,6,7-tetrahydro-1H-pyrazolo[3,4-c]pyridine-3-carboxamide]	4	77	69	–	–
Cn1nc(C(=O)NCc2ccc(C#N)cc2)c2c1C(=O)N(CC1(S(=O)(=O)C3(C(O)CO)CC3)CC1)CC2 (single isomer, unassigned) [Example 194, (R)- or (S)-N-(4-Cyanobenzyl)-6-((1-((1-(1,2-dihydroxyethyl)cyclopropyl)sulfonyl)cyclopropyl)methyl)-1-methyl-7-oxo-4,5,6,7-tetrahydro-1H-pyrazolo[3,4-c]pyridine-3-carboxamide]	1	50	20	–	–
CC(O)Cn1nc(C(=O)NCc2ccc(C#N)cc2)c2c1C(=O)N(CC1(S(=O)(=O)C3CC3)CC1)CC2 (single isomer, unassigned) [Example 225, (R)- or (S)-N-(4-cyanobenzyl)-6-((1-(cyclopropylsulfonyl)cyclopropyl)methyl)-1-(2-hydroxypropyl)-7-oxo-4,5,6,7-tetrahydro-1H-pyrazolo[3,4-c]pyridine-3-carboxamide]	4	63	90	–	–
Cn1nc(C(=O)NCc2ccc(C#N)cc2)c2ccn(CC3(S(=O)(=O)C4CC4)CC3)c(=O)c21 [Example 1, N-(4-cyanobenzyl)-6-((1-(cyclopropylsulfonyl)cyclopropyl)methyl)-1-methyl-7-oxo-6,7-dihydro-1H-pyrazolo[3,4-c]pyridine-3-carboxamide]	–	124	269	10	–
Cn1nc(C(=O)NCc2ccc(C#N)cc2)c2ccn(CC3(S(C)(=O)=O)CC3)c(=O)c21 [Example 2, N-(4-Cyanobenzyl)-1-methyl-6-((1-(methylsulfonyl)cyclopropyl)methyl)-7-oxo-6,7-dihydro-1H-pyrazolo[3,4-c]pyridine-3-carboxamide]	–	536	1880	27	–
Cn1nc(C(=O)NCc2ccc(Cl)nc2)c2c1C(=O)N(CC1(S(=O)(=O)C3CC3)CC1)CC2 [Example 7, N-((6-Chloropyridin-3-yl)methyl)-6-((1-(cyclopropylsulfonyl)cyclopropyl)methyl)-1-methyl-7-oxo-4,5,6,7-tetrahydro-1H-pyrazolo[3,4-c]pyridine-3-carboxamide]	56	534	861	–	–
Cn1nc(C2=NO[C@@H](c3ccc(C#N)cc3)C2)c2c1C(=O)N(CC1(S(=O)(=O)C3CC3)CC1)CC2 [Example 32, (R)-4-(3-(6-((1-(Cyclopropylsulfonyl)cyclopropyl)methyl)-1-methyl-7-oxo-4,5,6,7-tetrahydro-1H-pyrazolo[3,4-c]pyridin-3-yl)-4,5-dihydroisoxazol-5-yl)benzonitrile]	3	41	161	–	–
Cn1nc(C2=NO[C@H](c3ccc(C#N)cc3)C2)c2c1C(=O)N(CC1(S(=O)(=O)C3CC3)CC1)CC2 [Example 33, (S)-4-(3-(6-((1-(cyclopropylsulfonyl)cyclopropyl)methyl)-1-methyl-7-oxo-4,5,6,7-tetrahydro-1H-pyrazolo[3,4-c]pyridin-3-yl)-4,5-dihydroisoxazol-5-yl)benzonitrile]	1190	9940	> 25000	–	–
Cn1nc(C(=O)NCc2ccc(C#N)cc2)c2c1C(=O)N(CC1(S(=O)(=O)C(F)F)CC1)CC2 [Example 38, N-(4-Cyanobenzyl)-6-((1-((difluoromethyl)sulfonyl)cyclopropyl)methyl)-1-methyl-7-oxo-4,5,6,7-tetrahydro-1H-pyrazolo[3,4-c]pyridine-3-carboxamide]	–	607	784	14	–
[2H]C([2H])(O)C(C)(C)S(=O)(=O)C1(CN2CCc3c(C(=O)NCc4ccc(C#N)cc4)nn(C)c3C2=O)CC1 [Example 56, N-(4-Cyanobenzyl)-6-((1-((1-hydroxy-2-methylpropan-2-yl-1,1-d2)sulfonyl)cyclopropyl)methyl)-1-methyl-7-oxo-4,5,6,7-tetrahydro-1H-pyrazolo[3,4-c]pyridine-3-carboxamide]	1	21	17	–	–
CC(=O)OCC(C)(C)S(=O)(=O)C1(CN2CCc3c(C(=O)NCc4ccc(C#N)cc4)nn(C)c3C2=O)CC1 [Example 57, 2-((1-((3-((4-Cyanobenzyl)carbamoyl)-1-methyl-7-oxo-4,5-dihydro-1H-pyrazolo[3,4-c]pyridin-6(7H)-yl)methyl)cyclopropyl)sulfonyl)-2-methylpropyl acetate]	–	22	35	1	–
Cn1nc(C(=O)NCc2ccc(C#N)cc2)c2c1C(=O)N(CC1(S(=O)(=O)C(C)(C)CNC=O)CC1)CC2 [Example 71, N-(4-Cyanobenzyl)-6-((1-((1-formamido-2-methylpropan-2-yl)sulfonyl)cyclopropyl)methyl)-1-methyl-7-oxo-4,5,6,7-tetrahydro-1H-pyrazolo[3,4-c]pyridine-3-carboxamide]	1	95	33	–	–
CC(=O)NCC(C)(C)S(=O)(=O)C1(CN2CCc3c(C(=O)NCc4ccc(C#N)cc4)nn(C)c3C2=O)CC1 [Example 72, 6-((1-((1-Acetamido-2-methylpropan-2-yl)sulfonyl)cyclopropyl)methyl)-N-(4-cyanobenzyl)-1-methyl-7-oxo-4,5,6,7-tetrahydro-1H-pyrazolo[3,4-c]pyridine-3-carboxamide]	2	83	51	–	–
Cn1nc(C(=O)NCc2ccc(Cl)cc2)c2c1C(=O)N(CC1(S(=O)(=O)C(C)(C)COCCN)CC1)CC2 [Example 93, 6-((1-((1-(2-Aminoethoxy)-2-methylpropan-2-yl)sulfonyl)cyclopropyl)methyl)-N-(4-chlorobenzyl)-1-methyl-7-oxo-4,5,6,7-tetrahydro-1H-pyrazolo[3,4-c]pyridine-3-carboxamide]	–	5	25	1	–
Cn1nc(C(=O)NCc2ccc(F)cc2)c2c1C(=O)N(CC1(S(=O)(=O)C(C)(C)COCCN)CC1)CC2 [Example 94, 6-((1-((1-(2-aminoethoxy)-2-methylpropan-2-yl)sulfonyl)cyclopropyl)methyl)-N-(4-fluorobenzyl)-1-methyl-7-oxo-4,5,6,7-tetrahydro-1H-pyrazolo[3,4-c]pyridine-3-carboxamide]	–	22	54	9	–
Cn1nc(C(=O)NCc2ccc(Cl)cc2)c2c1C(=O)N(CC1(S(=O)(=O)C3(COCCN)CC3)CC1)CC2 [Example 95, 6-((1-((1-((2-Aminoethoxy)methyl)cyclopropyl)sulfonyl)cyclopropyl)methyl)-N-(4-chlorobenzyl)-1-methyl-7-oxo-4,5,6,7-tetrahydro-1H-pyrazolo[3,4-c]pyridine-3-carboxamide]	–	11	25	2	–
Cn1nc(-c2cn(Cc3ccc(C#N)cc3)nn2)c2c1C(=O)N(CC1(S(=O)(=O)C(C)(C)CO)CC1)CC2 [Example 105, 4-((4-(6-((1-((1-Hydroxy-2-methylpropan-2-yl)sulfonyl)cyclopropyl)methyl)-1-methyl-7-oxo-4,5,6,7-tetrahydro-1H-pyrazolo[3,4-c]pyridin-3-yl)-1H-1,2,3-triazol-1-yl)methyl)benzonitrile]	–	42	32	1	–
Cn1nc(C2=NO[C@@H](c3ccc(C#N)cc3)C2)c2c1C(=O)N(CC1(S(=O)(=O)C(C)(C)CO)CC1)CC2 [Example 107, (R)-4-(3-(6-((1-((1-Hydroxy-2-methylpropan-2-yl)sulfonyl)cyclopropyl)methyl)-1-methyl-7-oxo-4,5,6,7-tetrahydro-1H-pyrazolo[3,4-c]pyridin-3-yl)-4,5-dihydroisoxazol-5-yl)benzonitrile]	–	> 10000	–	872	> 25000
